From paper PMC5655428, “Discovery and pharmacological characterization of a new class of prolyl-tRNA synthetase inhibitor for anti-fibrosis therapy” (PLoS ONE, 2017)

Tests used:
[1] = mouse, in vivo
Description: The experimenters were blinded to the treatments given to the animals and to the biochemical and histological analyses and the data analyses. Eight-week-old C3H/He male mice (weighing 23~28 g, Japan SLC, Inc., Hamamatsu, Japan) were used for all the in vivo experiments. […] These animals were maintained on a 12/12 h light/dark cycle with constant temperature (23 ± 2°C) under specific pathogen-free conditions. Standard chow diet and water were available ad libitum.
After acclimatization for 1 weeks, animals were randomly divided according to body weight and treated for 3 to 5 consecutive days as follows. The ear and dorsal skin of mouse were intradermally injected with 20 μL (100 μL, dorsal skin) PBS or 500 ng TGF-β in PBS under anaesthesia with 3–4% sevoflurane. Injections were continued in this manner daily for 3 days (days 0, 1 and 2) or 5 days (days 0, 1, 2, 3 and 4). Treatment protocol included the daily topical application of T-3833261 or HF cream on the ear (40 μL/ear) 1 h before injections into the ear. A vehicle without compounds was applied to control mice. The topical material contained sorbitan sesquioleate (50 g), lanolin (50 g), liquid paraffin (250 g), propylene glycol (50 g), 90% lactic acid (1.5 g), T-3833261 (0.1, 0.3 and 1 g) or HF (0.1 g), and distilled water as the rest material. Topical application of compound was continued for 7 days. Mice were euthanized by cervical dislocation under sevoflurane anesthesia at 3 or 5 days after last TGF-β injection and the ear surrounding the TGF-β injection site was harvested with 8 μm biopsy punch under anesthesia.

[2] = tested on: TGF-β-treated human skin fibroblast; experiment: α-SMA and pro-COL1A1 protein ELISA in TGF-β-treated skin fibroblasts (Protocol 1); type: cell-based; conditions: TGF-β 1 ng/mL, 24 h; for pro-COL1A1 protein expression / α-SMA protein expression: 1-300 nM, 0.5 h pre-treatment, ELISA
Description: Primary human skin fibroblasts (NHDF-Ad) were obtained from Lonza (Basel, Switzerland). Cells were cultured and maintained in growth medium: Fibroblast Basal Medium (FBM) containing human fibroblast growth factor-B, insulin, fetal bovine serum (FBS) and gentamicin/amphotericin-B (Lonza). Cells were maintained in a humidified incubator at 37°C with 5% CO2 and used for experiments between passages 5 to 8.
Protocol 1: Cells were allowed to adhere overnight before being replaced with serum-free FBM for 24 h. Serum-starved cells were first pretreated with samples in DMSO at concentrations between 1 and 300 nM for 30 min and then stimulated with 1 ng/mL recombinant human TGF-β (R&D Systems, Minneapolis, MN, USA) for 24 h.
Cell lysates were prepared with cell lysis buffer (Cell Signaling Technology, Beverly, MA, USA) and subjected to α-SMA ELISA system (Abnova, Taipei, Taiwan) and Pro-type I Collagen α1 (pro-COL1A1) SimpleStep ELISA Kit (Abcam, Cambridge, UK, USA) according to the manufacturer's protocol.

[3] = tested on: Smad3 and phosphorylated Smad3 in human skin fibroblasts; experiment: Smad3 activation in western blotting; type: cell-based; conditions: 24 h treatment, then TGF-β 1 ng/mL 30 min; tested at 30 and 300 nM; western blot
Description: Cells were allowed to adhere overnight before being replaced with serum-free FBM for 24 h. Serum-starved cells were first pretreated with samples in DMSO at 30 and 300 nM for 24 h and then stimulated with 1 ng/mL TGF-β for 30 min. Cell lysates were prepared with lysis buffer and cellular proteins (11 μg/well) were separated by sodium dodecyl sulfate-polyacrylamide gel electrophoresis (4–20% Criterion TGX Precast Gel; Bio-Rad, Ontario, CA, USA). Protein bands were then transferred to polyvinylidene fluoride membranes (Trans-Blot Turbo Midi, Bio-Rad). Following blocking, the membranes were incubated with primary antibodies targeted against phospho-Smad3 (Cell Signaling Technology), Smad3 (Cell Signaling Technology) and β-actin (Cell Signaling Technology) followed by horseradish peroxidase-conjugated secondary antibody (Cell Signaling Technology). ECL Prime Western Blotting Detection Reagent (GE Healthcare Bio-Sciences, Little Chalfont, England) and LAS-3000 image analyzer (Fuji-film, Tokyo, Japan) were used for detection. Western blot band intensities were calculated by densitometric analyses with National Institutes of Health image software, Image J. Representative pictures are shown with quantified densitometric data.

[4] = tested on: differentiated human skin myofibroblast; experiment: reverse fibrosis: α-SMA protein in TGF-β-induced differentiated skin myofibroblasts (Protocol 2); type: cell-based; conditions: TGF-β 1 ng/mL 48 h, then compound 48 h without TGF-β
Description: Protocol 2: Cells were allowed to adhere overnight before being replaced with serum-free FBM for 24 h. Cells were then treated with TGF-β (1 ng/mL) for 48 h to induce differentiation to myofibroblast with expressing α-SMA protein. The medium was then removed, and the cells were subsequently treated with or without samples (1–300 nM) in serum-free FBM for an additional 48 h. Cell lysates were prepared with cell lysis buffer (Cell Signaling Technology, Beverly, MA, USA) and subjected to α-SMA ELISA system (Abnova, Taipei, Taiwan) and Pro-type I Collagen α1 (pro-COL1A1) SimpleStep ELISA Kit (Abcam, Cambridge, UK, USA) according to the manufacturer's protocol.

[5] = tested on: primary human skin fibroblast; experiment: mRNA expression of fibrosis-related genes by real-time quantitative RT-PCR; type: cell-based; conditions: 1-300 nM, TGF-β 1 ng/mL, 24 h
Description: Cells were allowed to adhere overnight before being replaced with serum-free FBM for 24 h. Serum-starved cells were first pretreated with samples in DMSO at concentrations between 1 and 300 nM for 30 min and then stimulated with 1 ng/mL TGF-β for 24 h. Then total RNA was collected from the cells by RNeasy 96 Kit (Qiagen, Valencia, CA, USA) and DNaseI (Qiagen) according to the manufacturer's protocol.
Total RNA was isolated from in vivo samples using ISOGEN II (Nippongene) according to the manufacturer's instructions. In vitro RNA samples were prepared as mentioned above. High Capacity cDNA Reverse Transcription Kit (Life Technologies, Carlsbad, CA, USA) was used for cDNA synthesis. Real-time quantitative RT-PCR reactions were performed as a TaqMan method on a ViiA 7 real-Time PCR System (Life Technologies), using TaqMan Fast Advanced Master Mix (Lifer Technologies) with specific primers on TaqMan Gene Expression Assays (Life Technologies) according to the manufacturer's manual. FAM-probed primers were used: COL1A1, Hs00164004_m1; α-SMA/ACTA2, Hs00426835_g1; fibroblast growth factor 2 (FGF2), Hs00266645_m1; Smad specific E3 ubiquitin protein ligase 2 (SMURF2), Hs00224203_m1; DDIT3, Hs00358796_g1; and glyceraldehyde 3-phosphate dehydrogenase (GAPDH), 4326317E for human in vitro cell assay. FAM-probed and TAMRA-quenched primers (Sigma-Aldrich Japan, Tokyo, Japan) were used: Col1a1, NM_007742; type I collagen alpha 2 (Col1a2), NM_007743; α-Sma/Acta2, NM_007392; and Gapdh, NM_008084 for mouse in vivo assay (S1 Table). The relative mRNA level of the target genes was calculated by the comparative threshold cycle (Ct) method using GAPDH (Gapdh) as an internal control for normalization. The fold change in the expression of each target gene was calculated by the following formula: relative quantification (RQ) = 2^-ΔΔCt.

| SMILES | Body weight day 0 [1] [g] | Body weight day 7 [1] [g] | body weight of the mice after one week of continuous topical application [1] | pro-COL1A1 protein expression [2] | α-SMA protein expression [2] | concentration reducing α-SMA and pro-COL1A1 proteins below the basal level of non-stimulated cells [2] [nM] | concentration showing a decrease in TGF-β-induced accumulation of Smad3 [3] [nM] | concentration showing a decrease in phosphorylated Smad3 (p-Smad3) [3] [nM] | concentration promoting the reduction of α-SMA protein in differentiated myofibroblasts [4] [nM] | concentration reducing α-SMA levels to that of non-stimulated controls [4] [nM] | COL1A1 mRNA expression [5] | DDIT3 mRNA expression [5] | FGF2 mRNA expression [5] | SMURF2 mRNA expression [5] | α-SMA mRNA expression [5] |
| --- | --- | --- | --- | --- | --- | --- | --- | --- | --- | --- | --- | --- | --- | --- | --- |
| O=C(CC1NCCCC1O)Cn1cnc2cc(Br)c(Cl)cc2c1=O (stereo not drawn) [HF, Halofuginone, reference compound] | 22.5 ± 0.3 | 23.7 ± 0.3 | did not change | suppressed pro-COL1A1 protein expression in a dose-dependent manner | suppressed α-SMA protein expression in a dose-dependent manner | ≥ 100 | 300 | 300 | 100 | 300 | reduced to near the level of non-stimulated control | dose-dependently increased DDIT3 expression | dose-dependently increased SMURF2 and FGF2 expressions | dose-dependently increased SMURF2 and FGF2 expressions | suppressed TGF-β-induced expression of α-SMA |
| Cn1cc(-c2cc(F)cc(CNC(=O)c3nccc4nc(C5CCCC5)[nH]c34)c2)cn1 [T-3833261, 2-Cyclopentyl-N-(3-fluoro-5-(1-methyl-1H-pyrazol-4-yl)benzyl)-3H-imidazo[4,5-c]pyridine-4-carboxamide] | – | – | – | suppressed pro-COL1A1 protein expression in a dose-dependent manner | suppressed α-SMA protein expression in a dose-dependent manner | ≥ 100 | 30 | 300 | 100 | 300 | suppressed expression of these fibrotic genes | dose-dependently increased DDIT3 expression | dose-dependently increased SMURF2 and FGF2 expressions | dose-dependently increased SMURF2 and FGF2 expressions | suppressed expression of these fibrotic genes |
